According to the Deep4Chem optical property database:
Where “and” joins values, the source holds several entries; their conditions need not be identical. Equal values may be shown once.

Assay: photoluminescence quantum yield (fraction); solvent given as SMILES

Nc1nc2c([nH]c(=O)n2[C@H]2C[C@H](O)[C@@H](CO)O2)c(=O)[nH]1
photoluminescence quantum yield (in O): 0.00013

Nc1cccc[nH+]1
photoluminescence quantum yield (in O): 0.64

Clc1ccc(-c2nc(-c3ccccc3)sc2N(c2ccccc2)c2ccccc2)cc1
photoluminescence quantum yield (in ClC(Cl)Cl): 0.33

COCCOCCOCCOCC(COCCOCCOCCOC)Oc1cc(/C=C/c2ccc(C=C3C(=O)c4ccccc4C3=O)cc2)c(OC(COCCOCCOCCOC)COCCOCCOCCOC)cc1/C=C/c1ccc(C=C2C(=O)c3ccccc3C2=O)cc1
photoluminescence quantum yield (in ClCCl): 0.23

CC[N+]1(CC)CN2C(=N1)C(C(=O)O)=Cc1cc(SC)ccc12
photoluminescence quantum yield (in O): 0.308

COC(=O)[C@]12N=N[C@](C(=O)OC)(C3C4C5C4C5C31)C1C3C4C3C4C12 (stereo partly drawn)
photoluminescence quantum yield (in CC#N): 0.039

Cc1ccc(-c2[nH]c(=O)n3c2-c2ccccc2C3=O)c(O)c1
photoluminescence quantum yield (in CC#N): 0.51 | photoluminescence quantum yield (in CO): 0.14 | photoluminescence quantum yield (in ClCCl): 0.63

O=P1(c2ccccc2)c2cc(N3c4ccccc4Oc4ccccc43)ccc2-c2ccc(N3c4ccccc4Oc4ccccc43)cc21
photoluminescence quantum yield (in Cc1ccccc1): 0.47 | photoluminescence quantum yield (in c1ccc2c(c1)c1ccccc1n2-c1ccc(-c2ccc(-n3c4ccccc4c4ccccc43)cc2)cc1): 0.41

Cn1cccc1-c1cc(C#N)ccc1C#N
photoluminescence quantum yield (in C1CCOC1): 0.139 | photoluminescence quantum yield (in CC#N): 0.024 | photoluminescence quantum yield (in CCCCCC): 0.378 | photoluminescence quantum yield (in CCCCOCCCC): 0.281 | photoluminescence quantum yield (in CCOCC): 0.206

Cc1ccc([C@@H]2C[C@](O)(c3ccccn3)C[C@](O)(c3ccccn3)[C@H]2C(=O)c2ccc(N(c3ccccc3)c3ccccc3)cc2)cc1
photoluminescence quantum yield (in C1CCOC1): 0.54 | photoluminescence quantum yield (in CC#N): 0.02 | photoluminescence quantum yield (in CCO): 0.01 | photoluminescence quantum yield (in CCOC(C)=O): 0.44 | photoluminescence quantum yield (in CN(C)C=O): 0.03 | photoluminescence quantum yield (in ClCCl): 0.27 | photoluminescence quantum yield (in c1ccccc1): 0.97

CCCCCCN1C(=O)c2cccc3c(-c4ccc(C)s4)ccc(c23)C1=O
photoluminescence quantum yield (in ClC(Cl)Cl): 0.78

O=[N+]([O-])c1ccc(-c2nc(/C=C/c3ccccc3)c(/C=C/c3ccccc3)[nH]2)cc1
photoluminescence quantum yield (in ClCCl): 0

c1ccc(CO[Si]23n4c5c6ccccc6c4/N=C4N=C(/N=c6/c7ccccc7c(n62)=c2c6ccccc6c(n23)=N5)c2ccccc2\4)cc1 (stereo not drawn)
photoluminescence quantum yield (in CN(C)C=O): 0.24

COC1=[N+]2C(=C(c3ccccc3)c3cc(SC#N)c(OC)n3[B-]2(F)F)C=C1SC#N
photoluminescence quantum yield (in CC#N): 0.1 | photoluminescence quantum yield (in CCCCCC): 0.1 | photoluminescence quantum yield (in CCOC(C)=O): 0.11 | photoluminescence quantum yield (in CO): 0.15 | photoluminescence quantum yield (in ClCCl): 0.17

O=C(c1ccncc1)c1ccc(-n2c3ccc(-n4c5ccccc5c5ccccc54)cc3c3cc(-n4c5ccccc5c5ccccc54)ccc32)cc1
photoluminescence quantum yield (in Cc1ccccc1): 0.243 | photoluminescence quantum yield (in c1cc(-c2cccc(-n3c4ccccc4c4ccccc43)c2)cc(-n2c3ccccc3c3ccccc32)c1): 0.96

N#Cc1c(/C=C/c2ccc(N(c3ccccc3)c3ccccc3)cc2)cc(-c2cccs2)cc1N1CCCCC1
photoluminescence quantum yield (in CS(C)=O): 0.53

CCC1=C(C)C2=Cc3c4ccccc4c4n3[B-](c3ccccc3)(Oc3ccccc3-4)[N+]2=C1C (stereo not drawn)
photoluminescence quantum yield (in CC#N): 0.75 | photoluminescence quantum yield (in CCCCCC): 0.77 | photoluminescence quantum yield (in Cc1ccccc1): 0.64 | photoluminescence quantum yield (in ClCCl): 0.75

CC(=O)c1ccc(-c2cc3c(ccc4sccc43)s2)cc1
photoluminescence quantum yield (in ClCCl): 0.12

CCN(CC)c1ccc2c(c1)oc(=O)c1c(-c3ccccc3C(=O)O)c3ccc(=[N+](CC)CC)cc-3oc12
photoluminescence quantum yield (in CCO): 0.21 | photoluminescence quantum yield (in ClC(Cl)Cl): 0.51 | photoluminescence quantum yield (in O): 0.01

CC[Si](C)(C)c1cc2ccc3cccc4ccc(c1C(=O)NC(C)(C)C)c2c34
photoluminescence quantum yield (in ClC(Cl)Cl): 0.156

N#Cc1cc(/C=C/c2ccc(/C=C/c3ccc(N(c4ccccc4)c4ccccc4)cc3)c(C#N)c2)ccc1/C=C/c1ccc(N(c2ccccc2)c2ccccc2)cc1
photoluminescence quantum yield (in ClCCl): 0.32

CC(C)(C)c1ccc(-n2c(-c3ccc(-c4ccc(N(c5ccccc5)c5ccccc5)cc4)cc3)nc3c4ccccc4c4ccccc4c32)cc1
photoluminescence quantum yield (in ClCCl): 1

c1cc2ccc3ccc(-c4ccc(-c5nnc(-c6ccc(-c7nnc(-c8ccc(-c9ccc%10ccc%11cccc%12ccc9c%10c%11%12)s8)o7)cc6)o5)s4)c4ccc(c1)c2c34
photoluminescence quantum yield (in ClC(Cl)Cl): 0.06

COc1cc(OC)cc(C2=C3C(C)=C(I)C(/C=C/c4c[nH]c5ccccc45)=[N+]3[B-](F)(F)n3c(/C=C/c4c[nH]c5ccccc45)c(I)c(C)c32)c1
photoluminescence quantum yield (in C1CCOC1): 0.12 | photoluminescence quantum yield (in CS(C)=O): 0.1 | photoluminescence quantum yield (in ClCCl): 0.15

COc1ccc(C(=O)OCc2ccc3c4cccc5cccc(c6cccc2c63)c54)cc1
photoluminescence quantum yield (in CCO): 0.93

O=P1(c2ccccc2)C(c2ccc(C(F)(F)F)cc2)=Cc2cc3ccccc3cc21 (stereo not drawn)
photoluminescence quantum yield (in ClCCl): 0.42

CCn1c2cc(C(C)(C)C)ccc2c2c3nsnc3c3c4ccc(C(C)(C)C)cc4n(CC)c3c21
photoluminescence quantum yield (in CN(C)C=O): 0.07 | photoluminescence quantum yield (in Cc1ccccc1): 0.08 | photoluminescence quantum yield (in ClCCl): 0.07

Cc1cc(C)nc(N)n1
photoluminescence quantum yield (in CCO): 0.15 | photoluminescence quantum yield (in CO): 0.248 | photoluminescence quantum yield (in O): 0.048

CC(C)(C)OC(=O)n1ccc2c3ccc4cccc5ccc(cc21)c3c54
photoluminescence quantum yield (in CCOC(C)=O): 0.27

CCOC(=O)c1ccc(C2=Cc3cc4ccccc4cc3P2(=O)c2ccccc2)cc1 (stereo not drawn)
photoluminescence quantum yield (in ClCCl): 0.54

Cc1ccc(-n2c3ccccc3c3cc(C(=C(C#N)C#N)c4ccccc4)ccc32)cc1
photoluminescence quantum yield (in C1CCOC1): 0.12 | photoluminescence quantum yield (in CC#N): 0.07 | photoluminescence quantum yield (in CC(C)=O): 0.05 | photoluminescence quantum yield (in CCOC(C)=O): 0.09 | photoluminescence quantum yield (in CO): 0.01 | photoluminescence quantum yield (in CS(C)=O): 0.02 | photoluminescence quantum yield (in Cc1ccccc1): 0.14 | photoluminescence quantum yield (in ClC(Cl)Cl): 0.13

F[B-]1(F)OC(C#Cc2ccccc2)=CC(c2ccccc2)=[O+]1
photoluminescence quantum yield (in ClCCl): 0.43

Fc1ccc2cc3cccc[n+]3cc2c1
photoluminescence quantum yield (in O): 0.34

Cc1cc(-c2ccc(C(C)(C)C)cc2)cc(C)[o+]1
photoluminescence quantum yield (in CC#N): 0.36 | photoluminescence quantum yield (in ClCCl): 0.25

c1cc2ccc3ccc4ccc5ccc1c1c2c3c4c51
photoluminescence quantum yield (in C1CCCCC1): 0.024

CCOC(=O)c1cc(C(=O)OCC)c2ccc(N(C)C)cc2n1
photoluminescence quantum yield (in CCO): 0.41

Cc1ccc(C)n1-c1ccc(C#N)cc1
photoluminescence quantum yield (in C1CCOC1): 0.025 | photoluminescence quantum yield (in CCCCCC): 0.026 | photoluminescence quantum yield (in CCCCCl): 0.035 | photoluminescence quantum yield (in CCOCC): 0.019 | photoluminescence quantum yield (in ClCCl): 0.033

C#CCNC1=C2C=CC=[N+]2[B-](F)(F)n2cccc21
photoluminescence quantum yield (in C1CCCCC1): 0.93 and 0.999 | photoluminescence quantum yield (in CC(C)=O): 0.86 | photoluminescence quantum yield (in CCCCO): 0.79 | photoluminescence quantum yield (in CCCO): 0.741 | photoluminescence quantum yield (in CCO): 0.66 and 0.6 | photoluminescence quantum yield (in CCOC(C)=O): 0.94 | photoluminescence quantum yield (in CN(C)C=O): 0.442 | photoluminescence quantum yield (in CO): 0.52 | photoluminescence quantum yield (in CS(C)=O): 0.278 | photoluminescence quantum yield (in Cc1ccccc1): 0.92 | photoluminescence quantum yield (in ClC(Cl)Cl): 0.829 | photoluminescence quantum yield (in OCC(F)(F)F): 0.88 | photoluminescence quantum yield (in c1ccccc1): 0.924

Oc1ccc2ccccc2c1-c1nc(-c2ccccc2)c2ccccn12
photoluminescence quantum yield (in ClCCl): 0.136

Oc1cccc2c(C3(O)C4CC5CC(C4)CC3C5)cccc12 (stereo not drawn)
photoluminescence quantum yield (in CC#N): 0.33

ClP1(Cl)=NP(Cl)(Cl)=NP(Cl)(Oc2ccc3ccc4cccc5ccc2c3c45)=N1 (stereo not drawn)
photoluminescence quantum yield (in ClCCl): 0.55

COc1ccc(-c2nc(-c3ccccc3O)c(-c3ccccc3O)n2-c2ccc(C)cc2)cc1
photoluminescence quantum yield (in C1CCOC1): 0.01 | photoluminescence quantum yield (in CS(C)=O): 0.01 | photoluminescence quantum yield (in ClC(Cl)Cl): 0.01 | photoluminescence quantum yield (in ClCCl): 0.04

C(=C\c1cnc2ccccc2n1)/c1cnccn1
photoluminescence quantum yield (in CCCCCC): 0.0014 | photoluminescence quantum yield (in CCO): 0.0012 | photoluminescence quantum yield (in CO): 0.001 | photoluminescence quantum yield (in ClCCl): 0.0014 | photoluminescence quantum yield (in c1ccccc1): 0.0015
